Assay results from the NIST ThermoML archive (doi:10.1016/j.fluid.2015.03.012).
± gives the expanded uncertainty stated by the source.

Experiment: mn = molality of the nth substance listed, in mol/kg
Settings: Survismeter

C[C@H](CCC(=O)[O-])[C@H]1CC[C@H]2[C@@H]3[C@H](O)C[C@@H]4C[C@H](O)CC[C@]4(C)[C@H]3C[C@H](O)[C@]12C.[Na+] [sodium cholate] + O
surface tension liquid-gas (293.15 K, m1 = 0.001): 63.15 ± 0.74 mN/m
surface tension liquid-gas (293.15 K, m1 = 0.002): 61.61 ± 0.67 mN/m
surface tension liquid-gas (293.15 K, m1 = 0.003): 60.5 ± 0.59 mN/m
surface tension liquid-gas (293.15 K, m1 = 0.004): 59.43 ± 0.61 mN/m
surface tension liquid-gas (293.15 K, m1 = 0.006): 57.08 ± 0.58 mN/m
surface tension liquid-gas (293.15 K, m1 = 0.008): 55.21 ± 0.5 mN/m
surface tension liquid-gas (293.15 K, m1 = 0.01): 54.04 ± 0.49 mN/m
surface tension liquid-gas (293.15 K, m1 = 0.014): 51.04 ± 0.44 mN/m
surface tension liquid-gas (293.15 K, m1 = 0.018): 50.55 ± 0.4 mN/m
surface tension liquid-gas (293.15 K, m1 = 0.022): 50.83 ± 0.4 mN/m
surface tension liquid-gas (293.15 K, m1 = 0.026): 50.59 ± 0.4 mN/m
surface tension liquid-gas (293.15 K, m1 = 0.03): 50.62 ± 0.4 mN/m
surface tension liquid-gas (298.15 K, m1 = 0.001): 62.55 ± 0.69 mN/m
surface tension liquid-gas (298.15 K, m1 = 0.002): 61.03 ± 0.66 mN/m
surface tension liquid-gas (298.15 K, m1 = 0.003): 59.94 ± 0.59 mN/m
surface tension liquid-gas (298.15 K, m1 = 0.004): 58.89 ± 0.57 mN/m
surface tension liquid-gas (298.15 K, m1 = 0.006): 56.89 ± 0.56 mN/m
surface tension liquid-gas (298.15 K, m1 = 0.008): 55.03 ± 0.52 mN/m
surface tension liquid-gas (298.15 K, m1 = 0.01): 53.57 ± 0.49 mN/m
surface tension liquid-gas (298.15 K, m1 = 0.014): 50.87 ± 0.43 mN/m
surface tension liquid-gas (298.15 K, m1 = 0.018): 50.64 ± 0.4 mN/m
surface tension liquid-gas (298.15 K, m1 = 0.022): 50.4 ± 0.4 mN/m
surface tension liquid-gas (298.15 K, m1 = 0.026): 50.17 ± 0.4 mN/m
surface tension liquid-gas (298.15 K, m1 = 0.03): 50.2 ± 0.4 mN/m
surface tension liquid-gas (303.15 K, m1 = 0.001): 61.55 ± 0.81 mN/m
surface tension liquid-gas (303.15 K, m1 = 0.002): 60.07 ± 0.65 mN/m
surface tension liquid-gas (303.15 K, m1 = 0.003): 59.01 ± 0.53 mN/m
surface tension liquid-gas (303.15 K, m1 = 0.004): 58.33 ± 0.58 mN/m
surface tension liquid-gas (303.15 K, m1 = 0.006): 56.04 ± 0.55 mN/m
surface tension liquid-gas (303.15 K, m1 = 0.008): 54.52 ± 0.5 mN/m
surface tension liquid-gas (303.15 K, m1 = 0.01): 53.09 ± 0.48 mN/m
surface tension liquid-gas (303.15 K, m1 = 0.014): 50.43 ± 0.43 mN/m
surface tension liquid-gas (303.15 K, m1 = 0.018): 50.2 ± 0.4 mN/m
surface tension liquid-gas (303.15 K, m1 = 0.022): 50.22 ± 0.4 mN/m
surface tension liquid-gas (303.15 K, m1 = 0.026): 49.99 ± 0.4 mN/m
surface tension liquid-gas (303.15 K, m1 = 0.03): 50.26 ± 0.4 mN/m
surface tension liquid-gas (308.15 K, m1 = 0.001): 61.35 ± 0.59 mN/m
surface tension liquid-gas (308.15 K, m1 = 0.002): 59.88 ± 0.64 mN/m
surface tension liquid-gas (308.15 K, m1 = 0.003): 58.83 ± 0.58 mN/m
surface tension liquid-gas (308.15 K, m1 = 0.004): 57.82 ± 0.59 mN/m
surface tension liquid-gas (308.15 K, m1 = 0.006): 55.58 ± 0.55 mN/m
surface tension liquid-gas (308.15 K, m1 = 0.008): 54.09 ± 0.5 mN/m
surface tension liquid-gas (308.15 K, m1 = 0.01): 52.68 ± 0.47 mN/m
surface tension liquid-gas (308.15 K, m1 = 0.014): 50.32 ± 0.43 mN/m
surface tension liquid-gas (308.15 K, m1 = 0.018): 49.59 ± 0.4 mN/m
surface tension liquid-gas (308.15 K, m1 = 0.022): 49.61 ± 0.4 mN/m
surface tension liquid-gas (308.15 K, m1 = 0.026): 49.63 ± 0.4 mN/m
surface tension liquid-gas (308.15 K, m1 = 0.03): 49.9 ± 0.4 mN/m
surface tension liquid-gas (313.15 K, m1 = 0.001): 60 ± 0.66 mN/m
surface tension liquid-gas (313.15 K, m1 = 0.002): 58.96 ± 0.57 mN/m
surface tension liquid-gas (313.15 K, m1 = 0.003): 57.95 ± 0.56 mN/m
surface tension liquid-gas (313.15 K, m1 = 0.004): 56.98 ± 0.55 mN/m
surface tension liquid-gas (313.15 K, m1 = 0.006): 55.14 ± 0.54 mN/m
surface tension liquid-gas (313.15 K, m1 = 0.008): 53.41 ± 0.51 mN/m
surface tension liquid-gas (313.15 K, m1 = 0.01): 52.05 ± 0.45 mN/m
surface tension liquid-gas (313.15 K, m1 = 0.014): 50.26 ± 0.43 mN/m
surface tension liquid-gas (313.15 K, m1 = 0.018): 49.07 ± 0.41 mN/m
surface tension liquid-gas (313.15 K, m1 = 0.022): 49.09 ± 0.4 mN/m
surface tension liquid-gas (313.15 K, m1 = 0.026): 49.11 ± 0.4 mN/m
surface tension liquid-gas (313.15 K, m1 = 0.03): 49.37 ± 0.4 mN/m
surface tension liquid-gas (318.15 K, m1 = 0.001): 59.45 ± 0.67 mN/m
surface tension liquid-gas (318.15 K, m1 = 0.002): 58.1 ± 0.57 mN/m
surface tension liquid-gas (318.15 K, m1 = 0.003): 57.45 ± 0.51 mN/m
surface tension liquid-gas (318.15 K, m1 = 0.004): 56.5 ± 0.54 mN/m
surface tension liquid-gas (318.15 K, m1 = 0.006): 54.69 ± 0.53 mN/m
surface tension liquid-gas (318.15 K, m1 = 0.008): 52.99 ± 0.5 mN/m
surface tension liquid-gas (318.15 K, m1 = 0.01): 51.65 ± 0.47 mN/m
surface tension liquid-gas (318.15 K, m1 = 0.014): 49.42 ± 0.43 mN/m
surface tension liquid-gas (318.15 K, m1 = 0.018): 48.73 ± 0.4 mN/m
surface tension liquid-gas (318.15 K, m1 = 0.022): 48.75 ± 0.4 mN/m
surface tension liquid-gas (318.15 K, m1 = 0.026): 48.77 ± 0.4 mN/m
surface tension liquid-gas (318.15 K, m1 = 0.03): 48.56 ± 0.4 mN/m
